Test results from the supplement of paper PMC10307832.

These cell lines were tested with C[C@]1(c2nc3c(C(N)=O)cccc3[nH]2)CCCN1 [Veliparib] + N=C(N)NC(=N)NCCc1ccccc1 [Phenformin] (partner 250 µM) (assay: relative viability (nuclei count vs DMSO), 5 days (fraction); higher = more cells survive). Conditions: first compound 2 µM.
Summary of the method: (§1)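 Dosing by pin tool came one day after lung cancer cell lines were seeded in 1536-well plates, using either one drug or a fixed anchor-drug dose plus five library-drug doses (not always all listed) in √10 steps. After 5 days, nuclei were counted on 4× images. Relative viability is treated-well nuclei count divided by vehicle-well nuclei count, and values are medians of duplicate plates.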

Cell Line	relative viability
NCI-H647	0.597
NCI-H2126	0.541
NCI-H1755	0.608

The cell lines below were run with COC1=CC=C(C=C1)CN2C=CC3=C2C=C(C=C3)C(=O)NO + COc1cccc2cc(-c3nc([C@H]4CC[C@H](C(=O)O)CC4)n4ncnc(N)c34)[nH]c12 [OSI-027] (partner 0.5 µM) in the same assay as above. Conditions: first compound 0.08 µM.
Summary of the method: as §1

Cell Line	relative viability
LC-2-ad	0.793
SW 900	0.559
NCI-H1651	0.682
COR-L23	0.647
HCC-827	0.766
LCLC-103H	0.441
RERF-LC-KJ	0.589
BEN	0.27
LCLC-97TM1	0.346
NCI-H2085	0.888
NCI-H727	0.592
201T	0.869
LOU-NH91	0.761
NCI-H1666	0.818
NCI-H650	0.524
NCI-H1993	0.525
HCC-44	0.465
NCI-H647	0.531
NCI-H2126	0.685
NCI-H1755	0.632

Same assay, conditions: first compound 0.253 µM

Cell Line	relative viability
LC-2-ad	0.853
SW 900	0.533
NCI-H1651	0.764
COR-L23	0.829
HCC-827	0.712
NCI-H522	0.611
LCLC-103H	0.529
RERF-LC-KJ	0.594
NCI-H3122	1.01
BEN	0.296
UMC-11	0.469
LCLC-97TM1	0.531
NCI-H2085	0.754
A-427	0.44
NCI-H727	0.576
NCI-H838	0.361
NCI-H1793	0.296
201T	0.827
NCI-H2228	0.536
LOU-NH91	0.699
NCI-H1666	0.906
NCI-H650	0.494
ChaGo-K-1	0.623
NCI-H1993	0.626
HCC-44	0.453
NCI-H647	0.752
NCI-H2126	0.775
NCI-H1755	0.746

Same assay, conditions: first compound 0.8 µM

Cell Line	relative viability
LC-2-ad	0.826
SW 900	0.63
NCI-H1651	0.758
COR-L23	0.795
HCC-827	0.81
NCI-H522	0.746
LCLC-103H	0.534
RERF-LC-KJ	0.662
NCI-H3122	0.945
BEN	0.288
UMC-11	0.554
LCLC-97TM1	0.546
NCI-H2085	0.746
A-427	0.497
NCI-H727	0.513
NCI-H838	0.41
NCI-H1793	0.267
201T	0.644
NCI-H2228	0.594
LOU-NH91	0.729
NCI-H1666	0.873
NCI-H650	0.52
ChaGo-K-1	0.675
NCI-H1993	0.53
HCC-44	0.498
NCI-H647	0.49
NCI-H2126	0.696
NCI-H1755	0.732

Same assay, conditions: first compound 2.53 µM

Cell Line	relative viability
LC-2-ad	0.979
SW 900	0.622
NCI-H1651	0.622
COR-L23	0.772
HCC-827	0.791
NCI-H522	0.733
LCLC-103H	0.388
RERF-LC-KJ	0.617
NCI-H3122	0.93
BEN	0.318
UMC-11	0.463
LCLC-97TM1	0.342
NCI-H2085	0.982
A-427	0.492
NCI-H727	0.809
NCI-H838	0.395
NCI-H1793	0.328
NCI-H2228	0.729
LOU-NH91	0.749
NCI-H1666	0.946
NCI-H650	0.526
ChaGo-K-1	0.504
NCI-H1993	0.571
HCC-44	0.554
NCI-H647	0.634
NCI-H2126	0.797
NCI-H1755	0.732

Same assay, conditions: first compound 8 µM

Cell Line	relative viability
LC-2-ad	0.671
SW 900	0.447
NCI-H1651	0.627
COR-L23	0.686
HCC-827	0.761
NCI-H522	0.718
LCLC-103H	0.397
RERF-LC-KJ	0.495
NCI-H3122	0.908
BEN	0.291
UMC-11	0.477
LCLC-97TM1	0.374
NCI-H2085	0.731
A-427	0.367
NCI-H727	0.534
NCI-H838	0.398
NCI-H1793	0.248
201T	0.71
NCI-H2228	0.473
LOU-NH91	0.709
NCI-H1666	0.85
NCI-H650	0.438
ChaGo-K-1	0.378
NCI-H1993	0.521
HCC-44	0.454
NCI-H647	0.492
NCI-H2126	0.743
NCI-H1755	0.708

Each cell line was assayed with COC1=CC=C(C=C1)CN2C=CC3=C2C=C(C=C3)C(=O)NO + N=C(N)NC(=N)NCCc1ccccc1 [Phenformin] (partner 250 µM) in the same assay as above. Conditions: first compound 0.08 µM.
Summary of the method: as §1

Cell Line	relative viability
LC-2-ad	0.493
SW 900	0.643
NCI-H1651	0.349
COR-L23	0.369
HCC-827	0.427
LCLC-103H	0.339
RERF-LC-KJ	0.362
BEN	0.267
LCLC-97TM1	0.176
NCI-H2085	0.739
NCI-H727	0.603
201T	0.487
LOU-NH91	0.612
NCI-H1666	0.559
NCI-H650	0.468
NCI-H1993	0.512
HCC-44	0.166
NCI-H647	0.371
NCI-H2126	0.516
NCI-H1755	0.595

Same assay, conditions: first compound 0.253 µM

Cell Line	relative viability
LC-2-ad	0.577
SW 900	0.652
NCI-H1651	0.302
COR-L23	0.441
HCC-827	0.382
NCI-H522	0.591
LCLC-103H	0.339
RERF-LC-KJ	0.412
NCI-H3122	0.324
BEN	0.224
UMC-11	0.356
LCLC-97TM1	0.399
NCI-H2085	0.758
A-427	0.344
NCI-H727	0.475
NCI-H838	0.589
NCI-H1793	0.457
201T	0.466
NCI-H2228	0.381
LOU-NH91	0.678
NCI-H1666	0.558
NCI-H650	0.45
ChaGo-K-1	0.539
NCI-H1993	0.571
HCC-44	0.231
NCI-H647	0.525
NCI-H2126	0.52
NCI-H1755	0.678

Same assay, conditions: first compound 0.8 µM

Cell Line	relative viability
LC-2-ad	0.561
SW 900	0.593
NCI-H1651	0.39
COR-L23	0.437
HCC-827	0.386
NCI-H522	0.614
LCLC-103H	0.398
RERF-LC-KJ	0.484
NCI-H3122	0.393
BEN	0.263
UMC-11	0.331
LCLC-97TM1	0.441
NCI-H2085	0.84
A-427	0.357
NCI-H727	0.517
NCI-H838	0.6
NCI-H1793	0.438
201T	0.453
NCI-H2228	0.3
LOU-NH91	0.702
NCI-H1666	0.557
NCI-H650	0.488
ChaGo-K-1	0.484
NCI-H1993	0.445
HCC-44	0.185
NCI-H647	0.443
NCI-H2126	0.544
NCI-H1755	0.636

Same assay, conditions: first compound 2.53 µM

Cell Line	relative viability
LC-2-ad	0.588
SW 900	0.512
NCI-H1651	0.325
COR-L23	0.447
HCC-827	0.417
NCI-H522	0.654
LCLC-103H	0.347
RERF-LC-KJ	0.408
NCI-H3122	0.382
BEN	0.269
UMC-11	0.286
LCLC-97TM1	0.46
NCI-H2085	0.722
A-427	0.314
NCI-H727	0.534
NCI-H838	0.628
NCI-H1793	0.414
201T	0.431
NCI-H2228	0.305
LOU-NH91	0.766
NCI-H1666	0.579
NCI-H650	0.458
ChaGo-K-1	0.438
NCI-H1993	0.477
HCC-44	0.228
NCI-H647	0.474
NCI-H2126	0.584
NCI-H1755	0.637

Same assay, conditions: first compound 8 µM

Cell Line	relative viability
LC-2-ad	0.479
SW 900	0.339
NCI-H1651	0.275
COR-L23	0.422
HCC-827	0.394
NCI-H522	0.651
LCLC-103H	0.287
RERF-LC-KJ	0.347
NCI-H3122	0.337
BEN	0.259
UMC-11	0.309
LCLC-97TM1	0.353
NCI-H2085	0.647
A-427	0.235
NCI-H727	0.415
NCI-H838	0.456
NCI-H1793	0.368
201T	0.35
NCI-H2228	0.24
LOU-NH91	0.637
NCI-H1666	0.523
NCI-H650	0.399
ChaGo-K-1	0.374
NCI-H1993	0.457
HCC-44	0.16
NCI-H647	0.404
NCI-H2126	0.517
NCI-H1755	0.61
